Legend:
Type in all cases: biochemical
KRAS G12D = biological target: T1, KRAS G12D (Homo sapiens, UniProt P01116, G12D); assay: HTRF KRAS-SOS1 interaction assay, KRAS G12D; conditions: binned ≤2 μM / >2 μM, read-out: Inhibition of KRAS G12D (IC50)
T1 construct: made in house; host or cells: E. coli, e.g. BL21 (DE3)
Outline: (§1)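 GST-KRAS + anti-GST-Eu; His-hSOS1 + anti-6His-XL665; cpd in DMSO, duplicate, 10–0.01 μM; ~10 min incubation; HTRF ex 337/em 620, 665 nm; IC50 fitted on 665/620 ratio.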

KRAS WT = biological target: T2, KRAS WT (Homo sapiens, UniProt P01116); assay: HTRF KRAS-SOS1 interaction assay, wildtype KRAS; conditions: binned ≤2 μM / >2 μM, read-out: Inhibition of KRAS WT (IC50)
T2 construct: made in house; host or cells: E. coli, e.g. BL21 (DE3)
T2 sequence (P01116 1-188 isoform P01116-2): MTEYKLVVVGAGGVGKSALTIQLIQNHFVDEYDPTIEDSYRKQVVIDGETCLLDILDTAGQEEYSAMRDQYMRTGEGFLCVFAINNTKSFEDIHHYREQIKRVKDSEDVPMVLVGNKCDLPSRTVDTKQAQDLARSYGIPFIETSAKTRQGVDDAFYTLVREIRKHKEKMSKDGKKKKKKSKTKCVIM
Outline: as §1

KRAS G12V = biological target: T3, KRAS G12V (Homo sapiens, UniProt P01116, G12V); assay: HTRF KRAS-SOS1 interaction assay, KRAS G12V; conditions: binned ≤2 μM / >2 μM, read-out: Inhibition of KRAS G12V (IC50)
T3 construct: made in house; host or cells: E. coli, e.g. BL21 (DE3)
T3 sequence (P01116 1-188 isoform P01116-2 G12V): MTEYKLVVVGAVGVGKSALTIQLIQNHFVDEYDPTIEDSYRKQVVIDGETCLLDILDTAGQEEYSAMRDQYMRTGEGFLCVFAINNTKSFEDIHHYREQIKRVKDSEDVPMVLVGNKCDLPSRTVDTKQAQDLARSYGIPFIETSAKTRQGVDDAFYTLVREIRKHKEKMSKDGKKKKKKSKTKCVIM
Outline: as §1

KRAS G12S = biological target: T4, KRAS G12S (Homo sapiens, UniProt P01116, G12S); assay: HTRF KRAS-SOS1 interaction assay, KRAS G12S; conditions: binned ≤2 μM / >2 μM, read-out: Inhibition of KRAS G12S (IC50)
T4 construct: made in house; host or cells: E. coli, e.g. BL21 (DE3)
T4 sequence (P01116 1-188 isoform P01116-2 G12S): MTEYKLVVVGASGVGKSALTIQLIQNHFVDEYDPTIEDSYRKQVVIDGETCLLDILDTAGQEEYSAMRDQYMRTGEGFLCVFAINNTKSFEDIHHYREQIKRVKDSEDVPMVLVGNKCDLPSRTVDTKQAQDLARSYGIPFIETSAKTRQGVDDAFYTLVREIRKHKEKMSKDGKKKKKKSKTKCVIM
Outline: as §1

T1 sequence (P01116 1-188 isoform P01116-2 G12D): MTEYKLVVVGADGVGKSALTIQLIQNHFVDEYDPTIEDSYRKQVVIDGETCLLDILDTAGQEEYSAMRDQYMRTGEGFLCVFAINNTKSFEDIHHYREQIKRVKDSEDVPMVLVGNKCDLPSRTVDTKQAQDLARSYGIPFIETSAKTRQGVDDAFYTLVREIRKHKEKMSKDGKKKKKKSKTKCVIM

Structure (SMILES)	IC50 (KRAS G12D)	IC50 (KRAS WT)	IC50 (KRAS G12V)	IC50 (KRAS G12S)
C[C@H](c1cc(F)cnc1N)N1CCOc2c(C(F)(F)F)c(-c3ccc(F)c4sc(N)c(C#N)c34)c(F)c3nc(OC[C@@]45CCCN4C[C@H](F)C5)nc1c23 (single isomer, unassigned) [Compound 864]	≤ 2000 nM	≤ 2000 nM	≤ 2000 nM	≤ 2000 nM
C#Cc1c(F)ccc2cc(O)cc(-c3nc4c5c(nc(OC[C@@]67CCCN6C[C@H](F)C7)nc5c3F)N(C(C)c3cccnc3N)CCO4)c12 (mixture of isomers) [Compound 742, 4-(10-(1-(2-aminopyridin-3-yl)ethyl)-4-fluoro-2-(((2R,7aS)-2-fluorotetrahydro-1H-pyrrolizin-7a (5H)-yl)methoxy)-9,10-dihydro-8H-7-oxa-1,3,6,10-tetraazacyclohepta[de]naphthalen-5-yl)-5-ethynyl-6-fluoronaphthalen-2-ol]	≤ 2000 nM	≤ 2000 nM	≤ 2000 nM	≤ 2000 nM
C[C@H](c1cc(C#N)cnc1N)N1CCOc2c(Cl)c(-c3ccc(F)c4sc(N)c(C#N)c34)c(F)c3nc(OC[C@@]45CCCN4C[C@H](F)C5)nc1c23 [Compound 873, 6-amino-5-((1R)-1-(9-(2-amino-3-cyano-7-fluorobenzo[b]thiophen-4-yl)-8-chloro-10-fluoro-2-(((2R,7aS)-2-fluorotetrahydro-1H-pyrrolizin-7a(5H)-yl)methoxy)-5,6-dihydro-4H-[1,4]oxazepino[5,6,7-de]quinazolin-4-yl)ethyl)nicotinonitrile]	≤ 2000 nM	≤ 2000 nM	≤ 2000 nM	≤ 2000 nM
N#Cc1c(N)sc2cccc(-c3c(Cl)c4c5c(nc(OC[C@@]67CCCN6C[C@H](F)C7)nc5c3F)N([C@@H](c3cccnc3N)C(F)F)CCO4)c12 (single isomer, unassigned) [Compound 802]	> 2000 nM	> 2000 nM	> 2000 nM	> 2000 nM
N#Cc1c(N)sc2c(F)ccc(-c3c(C(F)(F)F)c4c5c(nc(OCC6(CN7CCC8(CC7)CC8(F)F)CC6)nc5c3F)N([C@H](CCC(F)(F)F)c3cccnc3N)CCO4)c12 [Compound 637, 2-amino-4-(4-((R)-1-(2-aminopyridin-3-yl)-4,4,4-trifluorobutyl)-2-((1-((1,1-difluoro-6-azaspiro[2.5]octan-6-yl)methyl)cyclopropyl)methoxy)-10-fluoro-8-(trifluoromethyl)-5,6-dihydro-4H-[1,4]oxazepino[5,6,7-de]quinazolin-9-yl)-7-fluorobenzo[b]thiophene-3-carbonitrile]	≤ 2000 nM	≤ 2000 nM	≤ 2000 nM	≤ 2000 nM
C[C@H](c1cc(F)cnc1N)N1CCOc2c(C(F)(F)F)c(-c3ccc(F)c4sc(N)c(C#N)c34)c(F)c3nc(OCC4(CN5CC[C@@H](F)C5)CC4)nc1c23 [Compound 644, 2-amino-4-(4-((R)-1-(2-amino-5-fluoropyridin-3-yl)ethyl)-10-fluoro-2-((1-(((R)-3-fluoropyrrolidin-1-yl)methyl)cyclopropyl)methoxy)-8-(trifluoromethyl)-5,6-dihydro-4H-[1,4]oxazepino[5,6,7-de]quinazolin-9-yl)-7-fluorobenzo[b]thiophene-3-carbonitrile]	≤ 2000 nM	≤ 2000 nM	≤ 2000 nM	≤ 2000 nM
C[C@@H]1CN(CC2(COc3nc4c5c(c(C(F)(F)F)c(-c6ccc(F)c7sc(N)c(C#N)c67)c(F)c5n3)OCCN4[C@H](C)c3cccnc3N)CC2)CCO1 (single isomer, unassigned) [Compound 826]	> 2000 nM	> 2000 nM	> 2000 nM	> 2000 nM
C=C1CN2CCC[C@@]2(COc2nc3c4c(c(C(F)(F)F)c(-c5ccc(F)c6sc(N)c(C#N)c56)c(F)c4n2)OCCN3[C@H](C)c2cncnc2N)C1 [Compound 680, 2-amino-4-(4-((R)-1-(4-aminopyrimidin-5-yl)ethyl)-10-fluoro-2-(((S)-2-methylenetetrahydro-1H-pyrrolizin-7a(5H)-yl)methoxy)-8-(trifluoromethyl)-5,6-dihydro-4H-[1,4]oxazepino[5,6,7-de]quinazolin-9-yl)-7-fluorobenzo[b]thiophene-3-carbonitrile]	≤ 2000 nM	≤ 2000 nM	≤ 2000 nM	≤ 2000 nM
C[C@H](c1cccnc1N)N1CCOc2c(Cl)c(-c3ccc(F)c4sc(N)c(C#N)c34)c(F)c3nc(OC[C@@]45CCCN4C[C@H](F)C5)nc1c23 [Compound 850, 2-amino-4-(4-(1-(2-aminopyridin-3-yl)ethyl)-8-chloro-10-fluoro-2-(((2R,7aS)-2-fluorotetrahydro-1H-pyrrolizin-7a (5H)-yl)methoxy)-5,6-dihydro-4H-[1,4]oxazepino[5,6,7-de]quinazolin-9-yl)-7-fluorobenzo[b]thiophene-3-carbonitrile]	≤ 2000 nM	≤ 2000 nM	≤ 2000 nM	≤ 2000 nM
Cc1ccnc(N)c1[C@@H](C)N1CCOc2c(C(F)(F)F)c(-c3ccc(F)c4sc(N)c(C#N)c34)c(F)c3nc(OC[C@@]45CCCN4C[C@H](F)C5)nc1c23 (single isomer, unassigned) [Compound 821]	≤ 2000 nM	≤ 2000 nM	≤ 2000 nM	≤ 2000 nM
CCN(CC)CCC[C@H](c1cccnc1N)N1CCOc2c(C(F)(F)F)c(-c3ccc(F)c4sc(N)c(C#N)c34)c(F)c3nc(OC[C@@]45CCCN4C[C@H](F)C5)nc1c23 (single isomer, unassigned) [Compound 806]	≤ 2000 nM	≤ 2000 nM	≤ 2000 nM	≤ 2000 nM
C[C@H](c1cccnc1N)N1CCOc2nc(-c3ccc(F)c4sc(N)c(C#N)c34)c(F)c3nc(OC[C@@]45CCCN4C[C@H](F)C5)nc1c23 (single isomer, unassigned) [Compound 619]	≤ 2000 nM	≤ 2000 nM	≤ 2000 nM	≤ 2000 nM
C[C@H](c1cccnc1N)N1c2nc(OC[C@@]34CCCN3C[C@H](F)C4)nc3c(F)c(-c4ccc(F)c5sc(N)c(C#N)c45)c(Cl)c(c23)OC[C@@H]1C [Compound 800, 2-amino-4-((5S)-4-((R)-1-(2-aminopyridin-3-yl)ethyl)-8-chloro-10-fluoro-2-(((2R,7aS)-2-fluorotetrahydro-1H-pyrrolizin-7a(5H)-yl)methoxy)-5-methyl-5,6-dihydro-4H-[1,4]oxazepino[5,6,7-de]quinazolin-9-yl)-7-fluorobenzo[b]thiophene-3-carbonitrile]	≤ 2000 nM	≤ 2000 nM	≤ 2000 nM	≤ 2000 nM
C=C1CN2CCC[C@@]2(COc2nc3c4c(c(C(F)(F)F)c(-c5ccc(F)c6sc(N)c(C#N)c56)c(F)c4n2)OCCN3[C@H](C)c2cccnc2N)C1 [Compound 621, 2-amino-4-(4-((R)-1-(2-aminopyridin-3-yl)ethyl)-10-fluoro-2-(((S)-2-methylenetetrahydro-1H-pyrrolizin-7a(5H)-yl)methoxy)-8-(trifluoromethyl)-5,6-dihydro-4H-[1,4]oxazepino[5,6,7-de]quinazolin-9-yl)-7-fluorobenzo[b]thiophene-3-carbonitrile]	≤ 2000 nM	≤ 2000 nM	≤ 2000 nM	≤ 2000 nM
C[C@H](c1cccnc1N)N1CCOc2c(C(F)(F)F)c(-c3ccc(F)c4sc(N)c(C#N)c34)c(F)c3nc(OCC4(CN5CCC(=CF)CC5)CC4)nc1c23 [Compound 814, 2-amino-4-(4-((R)-1-(2-aminopyridin-3-yl)ethyl)-10-fluoro-2-((1-((4-(fluoromethylene)piperidin-1-yl)methyl)cyclopropyl)methoxy)-8-(trifluoromethyl)-5,6-dihydro-4H-[1,4]oxazepino[5,6,7-de]quinazolin-9-yl)-7-fluorobenzo[b]thiophene-3-carbonitrile]	≤ 2000 nM	≤ 2000 nM	≤ 2000 nM	≤ 2000 nM
C[C@H](c1cccnc1N)N1CCOc2c(C(F)(F)F)c(-c3ccc(F)c4sc(N)c(C#N)c34)c(F)c3nc(OCC4(CN5[C@H](C)COC[C@@H]5C)CC4)nc1c23 (single isomer, unassigned) [Compound 719]	> 2000 nM	> 2000 nM	> 2000 nM	> 2000 nM
CC(Oc1nc2c3c(c(Cl)c(-c4ccc(F)c5sc(N)c(C#N)c45)c(F)c3n1)OCCN2[C@H](C)c1cccnc1N)[C@@H]1CC(F)(F)CN1C (single isomer, unassigned) [Compound 919]	≤ 2000 nM	≤ 2000 nM	≤ 2000 nM	≤ 2000 nM
CN(C)C(=O)C[C@H](c1cccnc1N)N1CCOc2c(C(F)(F)F)c(-c3ccc(F)c4sc(N)c(C#N)c34)c(F)c3nc(OC[C@@]45CCCN4C[C@H](F)C5)nc1c23 [Compound 810, (3R)-3-(9-(2-amino-3-cyano-7-fluorobenzo[b]thiophen-4-yl)-10-fluoro-2-(((2R,7aS)-2-fluorotetrahydro-1H-pyrrolizin-7a(5H)-yl)methoxy)-8-(trifluoromethyl)-5,6-dihydro-4H-[1,4]oxazepino[5,6,7-de]quinazolin-4-yl)-3-(2-aminopyridin-3-yl)-N,N-dimethylpropanamide]	≤ 2000 nM	≤ 2000 nM	≤ 2000 nM	≤ 2000 nM

Source: patent publication US12668600B2 (Kumquat Biosciences Inc., priority 2023, dated 2026)
